{"source": "patent US9955691B2", "about": "“Macrocyclic picolinamides as fungicides” (DOW AGROSCIENCES LLC, priority 2014, dated 2018)", "tested_on": "Blumeria graminis f. sp. tritici", "assay": "Fungicidal activity: Wheat Powdery Mildew (ERYSGT)", "type": "in vivo", "conditions": "100 ppm, 1 DP (1 Day Protectant)", "data": [{"smiles": "COc1ccnc(C(=O)N[C@H]2COC[C@H](c3ccccc3)[C@@H](c3ccccc3)[C@H](C)OC2=O)c1OCOC(C)=O", "note": "[compound 7]", "values": [{"measurement": "ERYSGT disease control rating", "result": "A (>70)"}]}]}
